Each structure is given as a SMILES string.

In experiment [1] the target is T1, DNMT1 (Homo sapiens, UniProt P26358). The experiment is described as follows: biochemical DNMT activity quantification kit (Abcam), three […] pure preparations, n = […].
For experiment [2], the target named is T1, DNMT1. The experiment is described as follows: scintillation proximity methylation assay (SPA) screen with purified DNMT1; IC50 in Supplementary Figure S1A. In kind it is biochemical. Set-up: full-length recombinant human DNMT1. (In general: In a scintillation proximity assay essentially only radioactivity close to the scintillant gives light.)

T1 sequence (P26358 whole entry): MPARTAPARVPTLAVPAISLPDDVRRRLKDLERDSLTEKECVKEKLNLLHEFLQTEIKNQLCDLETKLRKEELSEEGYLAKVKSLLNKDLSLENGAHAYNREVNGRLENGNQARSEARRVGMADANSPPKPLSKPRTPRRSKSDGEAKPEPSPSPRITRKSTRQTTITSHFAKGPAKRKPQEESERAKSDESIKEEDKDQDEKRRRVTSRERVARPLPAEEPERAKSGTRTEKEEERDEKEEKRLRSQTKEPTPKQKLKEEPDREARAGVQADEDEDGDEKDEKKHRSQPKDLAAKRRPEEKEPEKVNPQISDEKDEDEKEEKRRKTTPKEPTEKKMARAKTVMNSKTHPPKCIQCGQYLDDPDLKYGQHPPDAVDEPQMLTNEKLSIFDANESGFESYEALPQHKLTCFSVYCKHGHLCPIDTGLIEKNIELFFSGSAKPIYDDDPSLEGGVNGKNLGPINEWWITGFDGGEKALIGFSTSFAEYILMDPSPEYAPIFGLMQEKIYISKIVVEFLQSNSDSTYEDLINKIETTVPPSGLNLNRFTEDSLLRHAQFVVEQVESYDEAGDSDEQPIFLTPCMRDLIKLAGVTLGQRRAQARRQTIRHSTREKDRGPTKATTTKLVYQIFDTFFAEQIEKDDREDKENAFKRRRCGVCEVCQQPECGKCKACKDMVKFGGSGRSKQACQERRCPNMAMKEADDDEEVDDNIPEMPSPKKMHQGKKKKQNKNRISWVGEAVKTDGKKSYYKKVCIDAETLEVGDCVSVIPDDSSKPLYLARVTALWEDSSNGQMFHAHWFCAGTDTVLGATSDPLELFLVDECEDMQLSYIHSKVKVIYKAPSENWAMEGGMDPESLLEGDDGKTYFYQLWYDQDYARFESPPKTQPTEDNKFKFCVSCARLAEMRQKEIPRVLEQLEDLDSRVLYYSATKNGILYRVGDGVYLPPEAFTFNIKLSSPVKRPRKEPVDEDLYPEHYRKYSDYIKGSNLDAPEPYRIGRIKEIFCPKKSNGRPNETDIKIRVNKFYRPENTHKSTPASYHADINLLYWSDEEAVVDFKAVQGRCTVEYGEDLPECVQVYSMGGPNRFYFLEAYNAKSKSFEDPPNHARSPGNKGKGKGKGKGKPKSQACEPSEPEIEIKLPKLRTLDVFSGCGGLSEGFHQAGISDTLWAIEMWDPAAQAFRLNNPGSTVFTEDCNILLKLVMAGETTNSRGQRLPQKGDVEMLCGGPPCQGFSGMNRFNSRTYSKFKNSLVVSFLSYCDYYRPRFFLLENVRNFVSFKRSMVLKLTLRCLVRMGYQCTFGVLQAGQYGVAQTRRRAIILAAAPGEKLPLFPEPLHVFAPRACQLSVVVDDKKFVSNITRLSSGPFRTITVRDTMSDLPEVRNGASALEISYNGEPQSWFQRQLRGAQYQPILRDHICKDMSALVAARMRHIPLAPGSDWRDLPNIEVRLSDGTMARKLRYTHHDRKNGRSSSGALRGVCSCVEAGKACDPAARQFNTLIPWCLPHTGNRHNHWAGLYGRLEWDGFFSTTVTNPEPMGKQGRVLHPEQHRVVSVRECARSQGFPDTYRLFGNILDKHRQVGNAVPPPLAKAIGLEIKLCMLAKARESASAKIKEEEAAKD

Turning to `O=C1c2c(O)cc(O)cc2O[C@H](c2cc(O)c(O)c(O)c2)[C@H]1O` [DHM, 3,3′,4′,5,5’,7-hexahydroxy-2,3-dihydroflavanonol], the “biochemical DNMT activity quantification kit (Abcam), three >95% pure preparatio” value at DNMT1 [1] was “DNMT1 inhibitory activity for DHM in the similar concentration range like myricetin (Figure 1D; Supplementary Figure S1B)”.

The term IC50 denotes the concentration that gives 50% inhibition. Turning to `O=c1c(O)c(-c2cc(O)c(O)c(O)c2)oc2cc(O)cc(O)c12` [Myr, myricetin], the IC50 on DNMT1 [2] was determined as 43.4 µM.
